Test results taken from patent publication US20040266718A1, “Inhibition of specific histone deacetylase isoforms” (priority 2001, published 2004).

Tests used:
human HDAC-1 = biological target: T1, human HDAC-1 (Homo sapiens, UniProt Q13547); assay: histone deacetylase enzyme assay, HDAC-1; type: biochemical; conditions: recombinant human enzyme, [3H]-acetylated histone substrate, 10 minutes; read-out: Enzyme IC50 (μM) HDAC1
T1 construct: made in house; host or cells: insect cells (baculovirus expression system)
Description: (§1) The other HDAC isotypes, HDAC-3 and HDAC-4, were purified directly on an anti-Flag affinity column.
(§2) For the deacetylase assay, 20,000 cpm of an [^3H]-metabolically-labeled acetylated histone was used as a substrate. Histones were incubated with cloned recombinant human HDAC enzymes at 37° C. […] All assay conditions were pre-determined to be certain that each reaction was linear. Reactions were stopped by adding acetic acid (0.04 M, final concentration) and HCl (250 mM, final concentration). The mixture was extracted with ethyl acetate, and the released [^3H]-acetic acid was quantified by liquid scintillation counting. For the inhibition studies, HDAC enzyme was preincubated with test compounds for 30 minutes at 4° C. prior to the start of the enzymatic assay. IC50 values for HDAC enzyme inhibitors were identified with dose response curves for each individual compound and, thereby, obtaining a value for the concentration of inhibitor that produced fifty percent of the maximal inhibition.

human HDAC-3 = biological target: T2, human HDAC-3 (Homo sapiens, UniProt O15379); assay: histone deacetylase enzyme assay, HDAC-3; type: biochemical; conditions: recombinant human enzyme, [3H]-acetylated histone substrate, 2 hours; read-out: Enzyme IC50 (μM) HDAC3
T2 construct: made in house; host or cells: insect cells (baculovirus expression system)
Description: as §1, §2

human HDAC-4 = biological target: T3, human HDAC-4 (Homo sapiens, UniProt P56524); assay: histone deacetylase enzyme assay, HDAC-4; type: biochemical; conditions: recombinant human enzyme, [3H]-acetylated histone substrate, 2 hours; read-out: Enzyme IC50 (μM) HDAC4
T3 construct: Flag; made in house
Description: Flag-tagged human HDAC-4 enzyme was produced in human embronic kidney 293 cells after transformation by the calcium phosphate precipitation method. Briefly, 293 cells were cultured in Dulbecco's Modified Eagle Medium (DMEM) containing 10% fetal bovine serum and antibiotics. Plasmid DNA encoding Flag-tagged human HDAC-4 was precipitated by ethanol and resuspend in sterile water. DNA-calcium precipitates, formed by mixing DNA, calcium choloride and 2× HEPES-buffered saline solution, were left on 293 cells for 12-16 hours. Cells were return to serum-contained. DMEM medium and harvested at 48 hour post transfection for purification of Flag-tagged HDAC-4 enzyme.
as §1
For the deacetylase assay, 20,000 cpm of an [^3H]-metabolically-labeled acetylated histone was used as a substrate. Histones were incubated with cloned recombinant human HDAC enzymes at 37° C. […] All assay conditions were pre-determined to be certain that each reaction was linear. Reactions were stopped by adding acetic acid (0.04 M, final concentration) and HCl (250 mM, final concentration). The mixture was extracted with ethyl acetate, and the released [^3H]-acetic acid was quantified by liquid scintillation counting. […]

human HDAC-6 = biological target: T4, human HDAC-6 (Homo sapiens, UniProt Q9UBN7); assay: histone deacetylase enzyme assay, HDAC-6; type: biochemical; conditions: recombinant human enzyme, [3H]-acetylated histone substrate, 2 hours; read-out: Enzyme IC50 (μM) HDAC6
T4 construct: made in house; host or cells: insect cells (baculovirus expression system)
Description: as §1, §2

[1] = test system: acetylated histone H-4 in T24 human bladder cancer cells; assay: inhibition of HDAC activity in whole cells (acetylated histone H-4 Western blot); type: cell-based; conditions: 16 hours
Description: T24 human bladder cancer cells (ATCC, Manassas, Va.) growing in culture were incubated with test compounds for 16 hours. Histones were extracted from the cells by standard procedures (see e.g. Yoshida et al., supra) after the culture period. Twenty μg total core histone protein was loaded onto SDS/PAGE and transferred to nitrocellulose membranes, which were then reacted with polyclonal antibody specific for acetylated histone H-4 (Upstate Biotech Inc., Lake Placid, […].). Horse Radish Peroxidase conjugated secondary antibody was used at a dilution of 1:5000 to detect primary antibody binding. The secondary antibody binding was visualized by use of the Enhanced chemiluminescence (ECL) detection kit (Amersham-Pharmacia Biotech., Inc., Piscataway, N.J.). After exposure to film, acetylated H-4 signal was quantitated by densitometry.

[2] = test system: human colon cancer HCT116 cells; assay: MTT assay of cell proliferation; type: cell-based; conditions: HCT-116, 72 hours
Description: Two thousand (2,000) human colon cancer HCT116 cells (ATCC, Manassas, Va. were used in an MTT (3-[4,5-dimethylthiazol-2-yl]-2,5 diphenyl tetrazolium bromide) assay to quantitatively determine cell proliferation and cytotoxicity. Typically, HCT116 cells were plated into each well of the 96-well tissue culture plate and left overnight to attach to the plate. Compounds at various concentrations were added into the culture media (final DMSO concentration 1%) and incubated for 72 hours. MTT solution (obtained from Sigma as powder) was added and incubated with the cells for 4 hours at 37° C. in incubator with 5% CO2. During the incubation, viable cells convert MTT to a water-insoluble formazan dye. Solubilizing buffer (50% N,N-dimethylformamide, 20% SDS, pH 4.7) was added to cells and incubated for overnight at 37C in incubator with 5% CO2. Solubilized dye was quantitated by calorimetric reading at […] using a reference of […]. Optical density values were converted to cell number values by comparison to a standard growth curve for each cell line.

[3] = test system: Human cancer HCT116 cells; assay: cell cycle arrest by FACS; type: cell-based; conditions: HCT116, 16 hours; concentration to induce a (G2+M)/S ratio of 2.5
Description: Human cancer HCT116 cells were plated at 2×10^5 per 10-cm dish and were left to attach to the dish overnight in the incubator. Cells were treated with small molecule inhibitors at various concentrations (1 uM and 10 uM, typically, dissolved in DMSO) for 16 hours. Cells were harvested by trypsinization and washed once in 1×PBS (phosphate buffered saline). The cells were resuspended in about 200 ul 1×PBS and were fixed by slowly adding 1 ml 70% ethanol at −20° C. and were left at least overnight at −20° C. Fixed cells were centrifuged at low speed (1,000 rpm) for 5 minutes, and the cell pellets were washed again with 1×PBS. Nucleic acids from fixed cells were incubated in a staining solution (0.1% (w/v) glucose in 1×PBS containing 50 ug/ml propidium iodide) (Sigma-Aldridge, Mississauga, Ontario, CA) and RNase A (final 100 units/ml, (Sigma-Aldridge, Mississauga, Ontario, CA) for at least 30 minutes in the dark at 25° C. DNA content was measured by using a fluorescence-activated cell sorter (FACS) machine. Treatment of cells with all HDAC small molecule inhibitors in Table 2 results in a significant accumulation of cancer cell in G2/M phase of the cell cycle and concomitantly reduce the accumulation of cancer cells in S phase of the cell cycle. The ratio of cells in G2/M phase vs. cells in the S. phase was determined. […]

[4] = test system: human colon cancer cells (HCT116); assay: tumor growth in mouse model, colon; type: in vivo, BALB/c nude mice; conditions: 40 mg/kg body weight/day, po
Description: (§3) Female BALB/c nude mice were obtained from Charles River Laboratories (Charles River, N.Y.) and used at age 8-10 weeks. Human prostate tumor cells (DU145, 2×10^6) or human colon cancer cells (HCT116; 2×10^6) or […] A549 2×106 were injected subcutaneously in the animal's flank and allowed to form solid tumors. Tumor fragments were serially passaged a minimum of three times, then approximately 30 mg tumor fragments were implanted subcutaneously through a small surgical incision under general anaesthesia. Small molecule inhibitor administration by intraperotineal or oral administration was initiated when the tumors reached a volume of 100 mm^3. For intraperotineal administration, small molecule inhibitors of HDAC (40-50 mg/kg body weight/day) were dissolved in 100% DMSO and administered daily intraperitoneally by injection. For oral administration, small molecule inhibitors of HDAC (40-50 mg/kg body weight/days) were dissolved in a solution containing 65% polyethylene glycol 400 (PEG 400 (Sigma-Aldridge, Mississauga, Ontario, CA, Catalogue No. P-3265), 5% ethanol, and 30% water. Tumor volumes were monitored twice weekly up to 20 days. Each experimental group contained at least 6-8 animals. Percentage inhibition was calculated using volume of tumor from vehicle-treated mice as controls.

A549 [5] = assay: tumor growth in mouse model, lung; type: in vivo, BALB/c nude mice; conditions: 50 mg/kg body weight/day, ip
Description: as §3

A549 [6] = assay: apoptosis, Cell Death Detection ELISA, A549; type: cell-based, human; conditions: 100 ng/ml
Description: (§4) In order to determine the effect of HDAC OSDNs on cell growth and cell death through apoptosis, A549 or T24 cells, MDAmb231 cells, and HMEC cells (ATCC, Manassas, Va.) were treated with HDAC OSDNs as previously described.
(§5) For the apoptosis study, cells were analyzed using the Cell Death Detection ELISA^Plus kit (Roche Diagnostic GmBH, Mannheim, Germany) according to the manufacturer's directions. Typically, 10,000 cells were plated in 96-well tissue culture dishes for 2 hours before harvest and lysis. Each sample was analyzed in duplicate. ELISA reading was done using a MR700 plate reader (DYNEX Technology, Ashford, Middlesex, England) at 410 nm. The reference was set at 490 nm.

T24 = assay: apoptosis, Cell Death Detection ELISA, T24; type: cell-based, human; conditions: 100 ng/ml
Description: as §4, §5

MDAmb231 = assay: apoptosis, Cell Death Detection ELISA, MDAmb231; type: cell-based, human; conditions: 100 ng/ml
Description: as §4, §5

HMEC = assay: apoptosis, Cell Death Detection ELISA, HMEC; type: cell-based, human; conditions: 100 ng/ml, normal cells
Description: as §4, §5

[7] = test system: p21 mRNA expression in A549 cells; assay: RNase protection assay, p21 in A549; type: cell-based, human; conditions: TSA vs lipofectin, 250 ng/ml, 16 hours
Description: (§6) As a control, A549 cells were treated by lipofectin with or without TSA (250 ng/ml) treatment for 16 hours. These RNase protection assays were done according to the following procedure. Total RNA from cells was prepared using “RNeasy miniprep kit” from QIAGEN following the manufacturer's manual. Labeled probes used in the protection assays were synthesized using “hStress-1 multiple-probe template sets” from Pharmingen (San Diego, Calif., U.S.A.) according to the manufacturer's instructions. Protection procedures were performed using “RPA II™ Ribonuclease Protection Assay Kit” from Ambion, (Austin, Tex.) following the manufacturer's instructions. Quantitation of the bands from autoradiograms was done by using Cyclone™ Phosphor System (Packard Instruments Co. Inc., Meriden, Conn.).

[8] = test system: GADD45 mRNA expression in A549 cells; assay: RNase protection assay, GADD45 in A549; type: cell-based, human; conditions: TSA vs lipofectin, 250 ng/ml, 16 hours
Description: as §6

[9] = test system: Bax mRNA expression in A549 cells; assay: RNase protection assay, Bax in A549; type: cell-based, human; conditions: TSA vs lipofectin, 250 ng/ml, 16 hours
Description: as §6

T4 sequence (Q9UBN7 whole entry): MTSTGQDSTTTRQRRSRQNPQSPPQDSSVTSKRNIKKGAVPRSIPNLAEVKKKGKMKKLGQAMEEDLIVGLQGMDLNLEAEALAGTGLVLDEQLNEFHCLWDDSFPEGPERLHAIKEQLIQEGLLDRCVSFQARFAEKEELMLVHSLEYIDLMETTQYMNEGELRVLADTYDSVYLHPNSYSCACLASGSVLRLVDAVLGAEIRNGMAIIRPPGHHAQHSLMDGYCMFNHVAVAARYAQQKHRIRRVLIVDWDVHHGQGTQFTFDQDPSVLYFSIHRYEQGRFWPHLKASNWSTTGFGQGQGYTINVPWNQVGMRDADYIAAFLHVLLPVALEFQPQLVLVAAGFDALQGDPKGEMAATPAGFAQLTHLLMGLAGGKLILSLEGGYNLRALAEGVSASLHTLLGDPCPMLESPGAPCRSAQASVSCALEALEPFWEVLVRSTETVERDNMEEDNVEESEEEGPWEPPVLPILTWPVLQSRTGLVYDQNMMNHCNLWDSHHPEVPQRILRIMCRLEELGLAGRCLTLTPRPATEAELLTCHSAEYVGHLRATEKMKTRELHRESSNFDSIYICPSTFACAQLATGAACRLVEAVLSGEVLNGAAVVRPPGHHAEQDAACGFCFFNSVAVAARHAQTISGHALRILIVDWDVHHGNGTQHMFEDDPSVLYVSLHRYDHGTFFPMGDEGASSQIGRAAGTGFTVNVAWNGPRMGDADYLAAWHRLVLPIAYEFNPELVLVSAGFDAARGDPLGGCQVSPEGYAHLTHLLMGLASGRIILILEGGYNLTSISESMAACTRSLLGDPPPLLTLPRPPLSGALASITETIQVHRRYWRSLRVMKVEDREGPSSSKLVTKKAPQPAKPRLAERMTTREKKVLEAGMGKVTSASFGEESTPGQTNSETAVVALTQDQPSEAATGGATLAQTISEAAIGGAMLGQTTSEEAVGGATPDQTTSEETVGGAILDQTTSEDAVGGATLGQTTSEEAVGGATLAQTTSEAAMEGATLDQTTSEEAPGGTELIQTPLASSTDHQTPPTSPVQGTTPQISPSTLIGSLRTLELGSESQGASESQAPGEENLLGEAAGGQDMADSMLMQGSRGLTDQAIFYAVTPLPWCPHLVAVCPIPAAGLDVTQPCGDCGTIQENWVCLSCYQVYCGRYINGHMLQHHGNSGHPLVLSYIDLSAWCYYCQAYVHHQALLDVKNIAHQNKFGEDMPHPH
T1 sequence (Q13547 whole entry): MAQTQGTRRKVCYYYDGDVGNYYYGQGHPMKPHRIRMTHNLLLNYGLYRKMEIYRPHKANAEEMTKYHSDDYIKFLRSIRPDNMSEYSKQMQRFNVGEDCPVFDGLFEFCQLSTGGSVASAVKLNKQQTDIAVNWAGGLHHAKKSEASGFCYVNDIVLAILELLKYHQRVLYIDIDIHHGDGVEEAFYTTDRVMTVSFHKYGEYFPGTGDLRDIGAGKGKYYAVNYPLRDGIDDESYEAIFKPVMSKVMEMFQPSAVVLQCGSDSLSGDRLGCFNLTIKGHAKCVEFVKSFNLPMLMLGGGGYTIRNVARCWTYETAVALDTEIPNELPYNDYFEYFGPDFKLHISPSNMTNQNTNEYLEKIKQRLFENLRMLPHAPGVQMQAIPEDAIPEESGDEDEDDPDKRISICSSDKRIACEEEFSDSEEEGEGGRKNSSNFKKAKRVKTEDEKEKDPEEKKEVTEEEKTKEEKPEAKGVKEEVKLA
T2 sequence (O15379 whole entry): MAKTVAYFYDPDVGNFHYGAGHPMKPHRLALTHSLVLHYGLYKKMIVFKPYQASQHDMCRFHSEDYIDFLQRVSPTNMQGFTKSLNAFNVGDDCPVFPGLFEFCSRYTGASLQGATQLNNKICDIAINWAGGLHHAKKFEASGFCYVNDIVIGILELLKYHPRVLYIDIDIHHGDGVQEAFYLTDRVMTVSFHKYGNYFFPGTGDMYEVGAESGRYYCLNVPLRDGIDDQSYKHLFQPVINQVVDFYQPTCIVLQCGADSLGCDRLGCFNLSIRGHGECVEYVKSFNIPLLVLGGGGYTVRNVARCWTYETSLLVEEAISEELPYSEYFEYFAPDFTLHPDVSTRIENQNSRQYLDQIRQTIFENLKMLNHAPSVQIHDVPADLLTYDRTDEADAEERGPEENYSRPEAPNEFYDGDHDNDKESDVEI
T3 sequence (P56524 whole entry): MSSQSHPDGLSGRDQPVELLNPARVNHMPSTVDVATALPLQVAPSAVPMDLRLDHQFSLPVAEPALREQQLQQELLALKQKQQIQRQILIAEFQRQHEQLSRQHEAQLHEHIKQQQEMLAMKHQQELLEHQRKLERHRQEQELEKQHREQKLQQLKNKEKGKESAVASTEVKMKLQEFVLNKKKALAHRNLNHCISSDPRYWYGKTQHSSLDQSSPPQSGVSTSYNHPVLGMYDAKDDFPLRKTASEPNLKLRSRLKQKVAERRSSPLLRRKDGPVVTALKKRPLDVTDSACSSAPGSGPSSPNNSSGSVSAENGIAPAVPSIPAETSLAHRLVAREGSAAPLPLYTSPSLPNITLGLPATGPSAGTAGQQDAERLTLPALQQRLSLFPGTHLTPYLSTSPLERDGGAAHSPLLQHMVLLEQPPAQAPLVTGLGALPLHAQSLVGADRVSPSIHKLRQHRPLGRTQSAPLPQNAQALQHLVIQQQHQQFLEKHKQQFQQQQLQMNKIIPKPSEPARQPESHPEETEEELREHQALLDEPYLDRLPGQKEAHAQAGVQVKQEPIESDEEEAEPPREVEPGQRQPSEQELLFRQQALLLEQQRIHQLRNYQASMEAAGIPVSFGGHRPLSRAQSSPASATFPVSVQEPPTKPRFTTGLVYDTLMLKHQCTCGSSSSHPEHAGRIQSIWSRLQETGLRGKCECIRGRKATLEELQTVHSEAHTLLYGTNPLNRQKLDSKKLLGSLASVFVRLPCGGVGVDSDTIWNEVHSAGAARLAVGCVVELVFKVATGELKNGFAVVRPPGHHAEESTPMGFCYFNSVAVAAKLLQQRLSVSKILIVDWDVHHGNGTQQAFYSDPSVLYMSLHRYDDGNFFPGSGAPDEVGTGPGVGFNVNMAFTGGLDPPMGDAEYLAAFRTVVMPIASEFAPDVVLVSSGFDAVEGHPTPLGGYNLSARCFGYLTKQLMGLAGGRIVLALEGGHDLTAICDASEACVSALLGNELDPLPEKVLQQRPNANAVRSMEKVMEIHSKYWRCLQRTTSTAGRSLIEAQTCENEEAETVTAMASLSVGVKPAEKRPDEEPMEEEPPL

| SMILES | IC50 (human HDAC-1) | IC50 (human HDAC-3) | IC50 (human HDAC-4) | IC50 (human HDAC-6) | H4-Ac [1] | EC50 [2] | Cell Cycle Arrest EC [3] | % inhibitor of tumor formation in vivo, colon [4] | % inhibitor of tumor formation in vivo, lung (A549 [5]) | Apoptosis After 48 Hour Treatment A549 (A549 [6]) | Apoptosis After 48 Hour Treatment T24 (T24) | Apoptosis After 48 Hour Treatment MDAmb231 (MDAmb231) | Apoptosis After 48 Hour Treatment HMEC (HMEC) | fold induction of transcription, p21, A549 [7] | fold induction of transcription, GADD45, A549 [8] | fold induction of transcription, Bax, A549 [9] |
| --- | --- | --- | --- | --- | --- | --- | --- | --- | --- | --- | --- | --- | --- | --- | --- | --- |
| Nc1ccccc1NC(=O)/C=C/C#Cc1cccc(NS(=O)(=O)c2ccccc2)c1 [Compound 2] | 3 µM | 30 µM | 35 µM | > 30 µM | 5 µM | 4 µM | 8 µM | 53% | 54% | – | – | – | – | – | – | – |
| CC(/C=C/C(=O)NO)=C\[C@@H](C)C(=O)c1ccc(N(C)C)cc1 [TSA, (R)-Trichostatin A, reference compound] | – | – | – | – | – | – | – | – | – | ++ (3-5X fold) | ++ (3-5X fold) | ++ (3-5X fold) | + (2-3X fold) | 2.8 fold | 0.6 fold | 0.8 fold |
